Measured values from patent publication US20240051940A1, “SULFONAMIDES WITH EGFR INHIBITION ACTIVITIES AND THEIR USE THEREOF” (ACCUTAR BIOTECHNOLOGY INC., priority 2021, published 2024).

Tests used:
Type in all cases: cell-based
HCC827 = assay: Cell growth inhibition (CellTiter-Glo), HCC827; settings: Homo sapiens, 72 h, HCC827 cells, 3 days after administration
Procedure: (§1) 2. Cell Growth Inhibition for HCC827, HCC827-LTC, HCC827-DTC and NCI-H2073.
(§2) HCC827(ATCC), HCC827-LTC, HCC827-DTC and NCI-H2073 (ATCC) were seeded in 96-well plates at 5000 cells/well in 90 μL of RPMI growth medium containing 10% FBS and 1% Penicillin Streptomycin. Cells were incubated at 37° C. overnight. The following day, the test compound was administered to the cells by using 10× compound stock solution prepared in growth medium at various concentrations. After administration of the compound, cells were then incubated at 37° C. for 3 days. Before CellTiter-Glo assay, the plates were equilibrated at room temperature for approximately 10 minutes. 100 ul of CellTiter-Glo® Reagent (Promega) was added to each well. The plates were then incubated at room temperature for 10 minutes and luminescence was recorded by EnSpire plate reader (PerkinElmer).

[1] = system: HCC827-LTC (HCC827 cells stably expressing human EGFR L858R/T790M/C797S, endogenous EGFR knocked out); assay: Cell growth inhibition (CellTiter-Glo), HCC827-LTC; settings: 72 h, 3 days after administration
Procedure: (§3) 1. Preparation of HCC827-LTC and HCC827-DTC Cell Lines
(§4) HCC827 cells (ATCC) were transduced with lentiviral particles expressing codon-optimized human EGFR L858R/T790M/C797S (LTC) mutant or del19/T790M/C797S (DTC) mutant, and then selecting under 5 ug/ml purimycin treatment for a week to generate HCC827 cells stably expressing EGFR LTC or DTC mutants. Next, endogenous EGFR gene in purimycin-selected HCC827 LTC or DTC cells was knocked out using CRISPR-Cas9 technology to ensure the growth of engineered HCC827 cells was solely dependent on exogenous EGFR LTC or DTC mutants. For the EGFR knockout, gRNA complex was prepared by combining Alt-R CRISPR-Cas9 tracrRNA and EGFR crRNA (5′-[…]-3′ for LTC) or (5′-[…]-3′ for DTC) (IDT-Integrated DNA Technologies), and then EGFR ribonucleoprotein (RNP) complex was prepared by combining gRNA complex and Alt-R S.p. Cas9 Nuclease V3 (IDT-Integrated DNA Technologies). Purimycin-selected HCC827 LTC or DTC cells were then electroporated with EGFR RNP complexes using Neon Transfection System (Thermo Fisher). Single clones of HCC827-LTC or HCC827-DTC with endogenous EGFR knockout were picked one week after electroporation and their EGFR knockout was validated by genomic DNA sequencing. HCC827-LTC or HCC827-DTC single clones were also further validated with loss of inhibitory activity by covalent EGFR inhibitors.
as §1, §2

[2] = system: HCC827-DTC (HCC827 cells stably expressing human EGFR del19/T790M/C797S, endogenous EGFR knocked out); assay: Cell growth inhibition (CellTiter-Glo), HCC827-DTC; settings: 72 h, 3 days after administration
Procedure: as §3, §4, §1, §2

NCI-H2073 = assay: Cell growth inhibition (CellTiter-Glo), NCI-H2073; settings: 72 h, NCI-H2073 cells, 3 days after administration
Procedure: as §1, §2

SMILES | GI50 (HCC827) [nM] | GI50 [1] [nM] | GI50 [2] [nM] | GI50 (NCI-H2073) [nM]
COc1cc(N2CCC(N3CCN(C)CC3)CC2)c(C)cc1Nc1ncnc(Nc2ccccc2NS(C)(=O)=O)n1 [Compound 3, N-(2-((4-((2-methoxy-5-methyl-4-(4-(4-methylpiperazin-1-yl)piperidin-1-yl)phenyl)amino)-1,3,5-triazin-2-yl)amino)phenyl)methanesulfon-amide] | 30 to 100 | 100 to 300 | 100 to 300 | 100 to 300
COc1cc(N2CCC(N3CCN(C)CC3)CC2)c(C)cc1Nc1ncc(Br)c(Nc2ccc3nccnc3c2NS(C)(=O)=O)n1 [Compound 1, N-(6-((5-bromo-2-((2-methoxy-5-methyl-4-(4-(4-methylpiperazin-1-yl)piperidin-1-yl)phenyl)amino)pyrimidin-4-yl)amino)quinoxalin-5-yl)methanesulfonamide] | 30 to 100 | 100 to 300 | 100 to 300 | 100 to 300
COc1cc(N2CCC(N3CCN(C)CC3)CC2)c(C)cc1Nc1ncc(Cl)c(Nc2ccc3nccnc3c2NS(C)(=O)=O)n1 [Compound 4, N-(6-((5-chloro-2-((2-methoxy-5-methyl-4-(4-(4-methylpiperazin-1-yl)piperidin-1-yl)phenyl)amino)pyrimidin-4-yl)amino)quinoxalin-5-yl)methanesulfonamide] | < 30 | 100 to 300 | 30 to 100 | 30 to 100
CCc1cc(Nc2ncc(Br)c(Nc3ccc4nccnc4c3NS(C)(=O)=O)n2)c(OC)cc1N1CCC(N2CCN(C)CC2)CC1 [Compound 2, N-(6-((5-bromo-2-((5-ethyl-2-methoxy-4-(4-(4-methylpiperazin-1-yl)piperidin-1-yl)phenyl)amino)pyrimidin-4-yl)amino)quinoxalin-5-yl)methanesulfonamide] | < 30 | 30 to 100 | 30 to 100 | 100 to 300
